Data on one compound can be found in paper PMC6017115, “Inhibitory Effect of Sauchinone on UDP-Glucuronosyltransferase (UGT) 2B7 Activity” (Molecules : A Journal of Synthetic Chemistry and Natural …, 2018).

As usually defined, the IC50 is the concentration that gives 50% inhibition.

Molecules are shown by their SMILES.

Common to all, as to assay type: in vitro ADME
One series has as its target T1, UGT1A4 (Homo sapiens, UniProt P22310).
T1 construct: The reaction mixture containing 0.25 mg/mL protein of HLM; tissue Corning Life Sciences 452156; host or cells: pooled human liver microsomes, 50 donors
T1 sequence (P22310 29-534): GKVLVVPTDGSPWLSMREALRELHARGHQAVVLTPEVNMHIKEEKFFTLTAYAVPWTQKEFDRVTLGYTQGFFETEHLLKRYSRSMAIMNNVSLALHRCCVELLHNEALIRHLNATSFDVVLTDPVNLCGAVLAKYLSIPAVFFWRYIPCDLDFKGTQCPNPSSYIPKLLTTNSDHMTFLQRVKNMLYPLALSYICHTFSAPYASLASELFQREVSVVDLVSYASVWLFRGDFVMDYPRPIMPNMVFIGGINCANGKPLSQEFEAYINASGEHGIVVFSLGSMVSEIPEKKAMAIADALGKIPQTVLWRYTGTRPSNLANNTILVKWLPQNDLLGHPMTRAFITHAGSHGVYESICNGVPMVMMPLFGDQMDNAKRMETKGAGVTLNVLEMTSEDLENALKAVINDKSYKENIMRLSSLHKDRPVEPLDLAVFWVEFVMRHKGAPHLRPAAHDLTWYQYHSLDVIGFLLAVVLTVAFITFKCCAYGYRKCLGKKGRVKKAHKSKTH
Kind of series: Inhibition of UGT1A4 (trifluoperazine glucuronidation) in human liver microsomes. As to conditions: human liver microsomes. On the procedure: (§1) Their IC50 values were compared to that of sauchinone. […] UGT-mediated activities in the presence of sauchinone as an inhibitor were expressed as percentages of corresponding control values (in absence of sauchinone). From percentages of control activity versus inhibitor concentrations, a sigmoid shaped curve was fitted to the data and IC50 as an enzyme inhibition parameter was calculated by fitting the Hill equation to the data using GraphPad Prism 5 (GraphPad Software Inc., San Diego, CA, USA).
In general terms: Liver microsomes are a subcellular fraction often used to study metabolism.

The target in the next series is T2, UGT1A6 (Homo sapiens, UniProt P19224).
T2 construct: tissue Corning Life Sciences 452156; host or cells: pooled human liver microsomes
T2 sequence (P19224 27-532): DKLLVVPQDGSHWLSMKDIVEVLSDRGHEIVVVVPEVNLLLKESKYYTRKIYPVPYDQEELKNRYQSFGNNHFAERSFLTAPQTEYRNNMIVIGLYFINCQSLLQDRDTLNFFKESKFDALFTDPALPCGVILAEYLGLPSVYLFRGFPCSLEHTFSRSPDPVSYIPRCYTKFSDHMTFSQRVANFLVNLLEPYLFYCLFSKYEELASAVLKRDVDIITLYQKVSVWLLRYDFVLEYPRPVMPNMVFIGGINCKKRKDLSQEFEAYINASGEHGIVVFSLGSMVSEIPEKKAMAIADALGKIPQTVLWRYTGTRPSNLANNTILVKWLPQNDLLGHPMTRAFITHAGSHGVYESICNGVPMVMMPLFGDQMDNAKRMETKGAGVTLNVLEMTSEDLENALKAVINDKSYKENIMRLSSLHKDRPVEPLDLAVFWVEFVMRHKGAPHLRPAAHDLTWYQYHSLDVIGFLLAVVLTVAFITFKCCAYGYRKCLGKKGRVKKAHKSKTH
Kind of series: Inhibition of UGT1A6 (serotonin glucuronidation) in human liver microsomes. On the procedure:
as §1

In the next series the target is T3, Ugt1a1 (Mus musculus, UniProt Q63886).
T3 construct: from tissue; host or cells: mouse liver microsomes prepared in house
T3 sequence (Q63886 30-535): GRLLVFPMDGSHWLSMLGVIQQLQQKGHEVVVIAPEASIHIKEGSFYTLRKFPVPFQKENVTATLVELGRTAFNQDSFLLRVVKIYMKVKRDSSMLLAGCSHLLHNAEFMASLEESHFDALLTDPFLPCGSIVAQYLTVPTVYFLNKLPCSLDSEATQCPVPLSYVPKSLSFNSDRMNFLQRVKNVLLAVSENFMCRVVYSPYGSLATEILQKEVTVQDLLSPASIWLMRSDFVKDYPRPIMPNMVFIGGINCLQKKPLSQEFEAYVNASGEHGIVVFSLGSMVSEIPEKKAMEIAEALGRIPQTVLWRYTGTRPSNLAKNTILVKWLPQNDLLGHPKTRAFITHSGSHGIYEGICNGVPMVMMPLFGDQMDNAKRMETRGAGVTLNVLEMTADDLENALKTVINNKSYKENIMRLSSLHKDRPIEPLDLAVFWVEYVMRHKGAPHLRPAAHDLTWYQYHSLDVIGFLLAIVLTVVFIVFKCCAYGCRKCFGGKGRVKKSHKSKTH
Kind of series: Inhibition of Ugt1a1 (β-estradiol) in mice liver microsomes. As to conditions: pH 7.6, probe β-estradiol (10 μM, in UGT substrate cocktail), read-out: IC50 of Ugt1a1-catalyzed β-estradiol. On the procedure: Their IC50 values were compared to that of sauchinone. […] Mice were sacrificed and then livers were removed and rinsed with saline. After weighing the livers, they were homogenized with a four-fold volume of ice-cold homogenizing buffer (0.154 M KCl, 50 mM Tris-base, 1 mM EDTA, pH 7.4). After centrifugation for 35 min at 9000× g and 4 °C, the supernatants were centrifuged for 95 min at 100,000× g and at 4 °C. The supernatants were discarded and the pellets were homogenized again with ice-cold homogenizing buffer. These aliquots were stored at −80 °C. The subsequent process to evaluate the inhibitory effects of sauchinone on UGT activities in MLM was the same as those using HLM. UGT-mediated activities in the presence of sauchinone as an inhibitor were expressed as percentages of corresponding control values (in absence of sauchinone). From percentages of control activity versus inhibitor concentrations, a sigmoid shaped curve was fitted to the data and IC50 as an enzyme inhibition parameter was calculated by fitting the Hill equation to the data using GraphPad Prism 5 (GraphPad Software Inc., San Diego, CA, USA).

The target in another series is T4, UGT2B7 (Homo sapiens, UniProt P16662).
T4 sequence (P16662 24-529): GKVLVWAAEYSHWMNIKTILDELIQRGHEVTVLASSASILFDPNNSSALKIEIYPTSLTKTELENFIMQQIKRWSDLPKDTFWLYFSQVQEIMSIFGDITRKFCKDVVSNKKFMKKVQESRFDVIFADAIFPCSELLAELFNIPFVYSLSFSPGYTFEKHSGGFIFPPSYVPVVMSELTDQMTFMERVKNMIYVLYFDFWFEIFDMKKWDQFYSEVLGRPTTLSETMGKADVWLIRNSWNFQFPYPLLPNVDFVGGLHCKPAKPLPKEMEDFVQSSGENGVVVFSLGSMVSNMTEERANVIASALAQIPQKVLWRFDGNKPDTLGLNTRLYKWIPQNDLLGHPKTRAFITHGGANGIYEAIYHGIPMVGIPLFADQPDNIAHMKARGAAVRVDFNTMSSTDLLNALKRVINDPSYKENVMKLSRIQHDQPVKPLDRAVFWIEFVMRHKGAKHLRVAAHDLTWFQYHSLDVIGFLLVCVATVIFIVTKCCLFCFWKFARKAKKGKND
Kind of series: Inhibition of UGT2B7 (zidovudine glucuronidation) in human liver microsomes. Further details: tissue Corning Life Sciences 452156; host or cells: pooled human liver microsomes. The method, then: as §1

Turning to `C[C@@H]1[C@H]2c3cc4c(cc3O[C@@]35OCOC3=CC(=O)[C@H](C[C@H]1C)[C@@H]25)OCO4` [Sauchinone], the “inhibitory effect on UGT1A4 activity” value at UGT1A4 (sauchinone up to 200 μM) is recorded as “negligible inhibitory effect”. Further, the IC50 at UGT1A4 (substrate 40 μM trifluoperazine, mean (minimum–maximum), read-out: IC50 for inhibition of UGT1A4) was above 200000 nM; against UGT1A6 it was 758 nM; on Ugt1a1, 152000 nM; against UGT2B7, 279 nM.
